Results from US20240116985A1, “STAPLED PEPTIDES AND METHODS THEREOF” (priority 2020, published 2024).
Like-named read-outs stand apart in the source and are kept apart here.

Key:
CHI Log D procedure = format: physicochemical; conditions: for CHI Log D: pH 7.4; for chromatographic logD: pH 7.4, CHI Log D
[1] = target: T1, beta-catenin/TCF4 engagement (Homo sapiens, UniProt P35222); experiment: Nano-BRET target engagement assay (B-cat-Halo & TCF4-Luc in HEK293 cells); format: cell-based
T1 construct: expressed in transfected cells; host or cells: HEK293
T1 sequence (P35222 1-781): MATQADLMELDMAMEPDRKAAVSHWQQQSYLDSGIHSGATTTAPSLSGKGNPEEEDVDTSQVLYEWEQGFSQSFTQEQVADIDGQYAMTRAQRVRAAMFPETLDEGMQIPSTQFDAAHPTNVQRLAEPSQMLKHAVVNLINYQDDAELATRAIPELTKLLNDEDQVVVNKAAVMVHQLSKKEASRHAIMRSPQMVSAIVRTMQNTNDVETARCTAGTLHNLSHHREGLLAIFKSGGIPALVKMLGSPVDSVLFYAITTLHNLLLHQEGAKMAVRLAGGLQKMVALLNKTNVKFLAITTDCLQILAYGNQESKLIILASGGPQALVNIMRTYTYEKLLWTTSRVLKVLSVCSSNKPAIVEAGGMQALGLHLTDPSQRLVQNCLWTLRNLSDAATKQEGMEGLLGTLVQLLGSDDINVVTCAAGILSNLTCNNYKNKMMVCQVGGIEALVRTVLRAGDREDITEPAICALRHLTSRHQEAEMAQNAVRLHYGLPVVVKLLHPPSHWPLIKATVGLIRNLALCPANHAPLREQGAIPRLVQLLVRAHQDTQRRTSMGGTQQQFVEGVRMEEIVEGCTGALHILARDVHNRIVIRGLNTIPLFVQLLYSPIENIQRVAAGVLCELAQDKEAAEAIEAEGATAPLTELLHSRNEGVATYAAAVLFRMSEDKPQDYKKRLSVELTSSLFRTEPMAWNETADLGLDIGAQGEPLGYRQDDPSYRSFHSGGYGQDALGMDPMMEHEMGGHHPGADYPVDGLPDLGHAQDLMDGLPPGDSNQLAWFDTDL

[2] = target: T2, full-length beta-Catenin (Uniprot ID P35222) (Homo sapiens, UniProt P35222); experiment: Fluorescence polarization IC50 (beta-catenin / 5FAM-TCF4 10-53 competition); format: binding
T2 construct: 10 nM full-length beta-Catenin (Uniprot ID P35222)
T2 sequence (P35222 1-781): T1 sequence (P35222 1-781)

[3] = absolute IC50, read-out: NanoBRET Abs IC50
[4] = fluorescence polarization, read-out: beta-Catenin FP IC50

SMILES | chromatographic logD (CHI Log D procedure) | IC50 [1, 3] [µM] | IC50 [2, 4] [µM] | also measured
CC(=O)N[C@@H](Cc1ccccc1)C(=O)N[C@@H](CC(=O)O)C(=O)N[C@@H](C)C(=O)N[C@]1(C)CCCCCCC=CCOC(=O)N2CC[C@@](C(=O)N[C@@H](Cc3ccc(O)cc3)C(=O)N[C@@H](Cc3c[nH]c4ccccc34)C(=O)N[C@@H](CCC(N)=O)C(N)=O)(C2)NC(=O)[C@H](C(C)C)NC(=O)[C@H](Cc2ccccc2)NC(=O)[C@H](C)NC(=O)[C@H](C)NC(=O)[C@H](CC(=O)O)NC(=O)[C@H](CC(=O)O)NC1=O (single isomer, unassigned) [I-63, Ac-Phe-Asp-Ala-R8-Asp-Asp-Ala-Ala-Phe-Val-PyrS-Tyr-Trp-Gln-NH2] | – | – | – | CHI Log D (CHI Log D procedure): 1.019
CC(=O)N[C@@H](Cc1ccccc1)C(=O)N[C@@H](CC(=O)O)C(=O)N[C@@H](C)C(=O)N[C@]1(C)CCCCCCC=CCOC(=O)N2CC[C@@](C(=O)N[C@@H](CC3CCCCC3)C(=O)N[C@@H](Cc3c[nH]c4ccccc34)C(=O)N[C@@H](CCC(N)=O)C(N)=O)(C2)NC(=O)[C@H](C(C)C)NC(=O)[C@H](Cc2ccccc2)NC(=O)[C@H](C)NC(=O)[C@H](C)NC(=O)[C@H](CC(=O)O)NC(=O)[C@H](CC(=O)O)NC1=O (single isomer, unassigned) [I-60, Ac-Phe-Asp-Ala-R8-Asp-Asp-Ala-Ala-Phe-Val-PyrS-Cha-Trp-Gln-NH2] | 1.36 | – | – | –
CC(=O)N[C@@H](Cc1ccccc1)C(=O)N[C@@H](CC(=O)O)C(=O)N[C@@H](C)C(=O)N[C@]1(C)CCCCCCC=CCOC(=O)N2CC[C@@](C(=O)N[C@@H](Cc3cccc(C(N)=O)c3)C(=O)N[C@@H](Cc3c[nH]c4ccccc34)C(=O)N[C@@H](CCC(N)=O)C(N)=O)(C2)NC(=O)[C@H](C(C)C)NC(=O)[C@H](Cc2ccccc2)NC(=O)[C@H](C)NC(=O)[C@H](C)NC(=O)[C@H](CC(=O)O)NC(=O)[C@H](CC(=O)O)NC1=O [I-107, Ac-Phe-Asp-Ala-R8-Asp-Asp-Ala-Ala-Phe-Val-PyrS-3CBMF-Trp-Gln-NH2] | 1 | – | – | –
CC(=O)N[C@@H](Cc1ccccc1)C(=O)N[C@@H](CC(=O)O)C(=O)N[C@@H](C)C(=O)N[C@]1(C)CCCCCCC=CCOC(=O)N2CC[C@@](C(=O)N[C@@H](Cc3ccc(C(N)=O)cc3)C(=O)N[C@@H](Cc3c[nH]c4ccccc34)C(=O)N[C@@H](CCC(N)=O)C(N)=O)(C2)NC(=O)[C@H](C(C)C)NC(=O)[C@H](Cc2ccccc2)NC(=O)[C@H](C)NC(=O)[C@H](C)NC(=O)[C@H](CC(=O)O)NC(=O)[C@H](CC(=O)O)NC1=O (single isomer, unassigned) [I-90, Ac-Phe-Asp-Ala-R8-Asp-Asp-Ala-Ala-Phe-Val-PyrS-4CBMF-Trp-Gln-NH2] | 0.958 | – | – | –
CCCC[C@@H]1NC(=O)C2(CCCC=CCCCCCC[C@@](C)(C(=O)N[C@@H](Cc3ccccc3)C(=O)N[C@@H](Cc3c[nH]c4ccccc34)C(=O)N[C@@H](CCC(N)=O)C(N)=O)NC(=O)[C@H](C(C)C)NC(=O)[C@H](Cc3ccccc3)NC(=O)[C@H](C)NC(=O)[C@H](C)NC(=O)[C@H](CCC(=O)O)NC1=O)CCCC=CC[C@]1(CCCN1C(C)=O)C(=O)N[C@@H](CC(=O)O)C(=O)N[C@@H](C)C(=O)N2 (stereo partly drawn) [I-205, Ac-PL3-Asp-Ala-B5-nLeu-Glu-Ala-Ala-Phe-Val-S8-Phe-Trp-Gln-NH2] | 3.84 | – | – | –
CC(=O)N[C@@H](Cc1ccccc1)C(=O)N[C@@H](CC(=O)O)C(=O)N[C@@H](C)C(=O)N[C@]1(C)CCCCCCC=CCOC(=O)N2CC[C@@](C(=O)N[C@@H](Cc3ccccc3)C(=O)N[C@@H](Cc3c[nH]c4ccccc34)C(=O)N[C@@H](CCC(N)=O)C(N)=O)(C2)NC(=O)[C@H](C(C)C)NC(=O)[C@H](CCc2ccccc2)NC(=O)[C@H](C)NC(=O)[C@H](C)NC(=O)[C@H](CC(=O)O)NC(=O)[C@H](CC(=O)O)NC1=O [I-118, Ac-Phe-Asp-Ala-R8-Asp-Asp-Ala-Ala-hPhe-Val-PyrS-Phe-Trp-Gln-NH2] | – | – | – | CHI Log D (CHI Log D procedure): 1.545
CC(=O)N1CCC[C@]12CC=CCCCC1(CCCC=CCCCOC(=O)N3CC[C@@](C(=O)N[C@@H](Cc4ccccc4Cl)C(=O)N[C@@H](Cc4csc5ccccc45)C(=O)N[C@H](C(N)=O)[C@@H](C)O)(C3)NC(=O)[C@H](CC(C)C)NC(=O)[C@H](Cc3ccccc3)NC(=O)[C@H](C)NC(=O)[C@H](CCCCNC(C)C)NC(=O)[C@H](CC(=O)O)NC(=O)[C@H](CC(=O)O)NC1=O)NC(=O)[C@H](CC(C)(C)C)NC(=O)[C@H](CC(=O)O)NC2=O (stereo partly drawn) [I-1276, Ac-PL3-Asp-Npg-B5-Asp-Asp-iPrLys-Ala-Phe-Leu-PyrS2-2C1F-BztA-Thr-NH2] | – | > 20 | 0.01 | –
CC(=O)N1CCC[C@]12CC=CCCCC1(CCCC=CCCCOC(=O)N3CC[C@@](C(=O)N[C@@H](Cc4ccsc4)C(=O)N[C@@H](Cc4csc5ccccc45)C(=O)N[C@@H](CC(N)=O)C(=O)N[C@@H](CC(C)C)C(=O)N[C@@H](CC(C)C)C(=O)N[C@@H](CC(C)C)C(=O)N[C@@H](CC(C)C)C(=O)N[C@@H](CC(C)C)C(N)=O)(C3)NC(=O)[C@H](CC(C)C)NC(=O)[C@H](Cc3ccccc3)NC(=O)[C@H](C)NC(=O)[C@H](C)NC(=O)[C@H](Cc3cccc(C(=O)O)c3)NC(=O)[C@H](CC(=O)O)NC1=O)NC(=O)[C@H](CC(C)(C)C)NC(=O)[C@H](CC(=O)O)NC2=O (stereo partly drawn) [I-2279, Ac-PL3-Asp-Npg-B5-Asp-3COOHF-Ala-Ala-Phe-Leu-PyrS2-3Thi-BztA-Asn-Leu-Leu-Leu-Leu-Leu-NH2] | – | – | – | IC50 ([1]; read-out: NanoBRET Abs IC50, absolute IC50): > 20 µM; IC50 ([2]; read-out: beta-Catenin FP IC50, fluorescence polarization): 7.23 µM
CC(=O)N1CCC[C@]12CC=CCCCC1(CCCC=CCCCOC(=O)N3CC[C@@](C(=O)N[C@@H](Cc4ccsc4)C(=O)N[C@@H](Cc4ccc(C)c(C)c4)C(=O)N[C@@H](C)C(N)=O)(C3)NC(=O)[C@H](C(C)C)NC(=O)[C@H](Cc3ccccc3)NC(=O)[C@H](C)NC(=O)[C@H](CCC(N)=O)NC(=O)[C@H](Cc3cccc(C(=O)O)c3)NC(=O)[C@H](CC(=O)O)NC1=O)NC(=O)[C@H](CC(C)(C)C)NC(=O)[C@H](CC(=O)O)NC2=O (stereo partly drawn) [I-2292, Ac-PL3-Asp-Npg-B5-Asp-3COOHF-Gln-Ala-Phe-Val-PyrS2-3Thi-34MeF-Ala-NH2] | – | 2.7 | 0.009 | –
CCCC[C@@H]1NC(=O)[C@H](Cc2ccccc2)NC(=O)[C@H](C)NC(=O)C(C)(C)NC(=O)[C@H](Cc2cccc(C(=O)O)c2)NC(=O)[C@H](CC(=O)O)NC(=O)C2(CCCC=CCCCOC(=O)N3CC[C@@](C(=O)N[C@@H](Cc4ccsc4)C(=O)N[C@@H](Cc4csc5ccccc45)C(=O)N[C@@H](CCC(=O)N4CCN(C(C)=O)CC4)C(N)=O)(C3)NC1=O)CCCC=CC[C@]1(CCCN1C(C)=O)C(=O)N[C@@H](CC(=O)O)C(=O)N[C@@H](CC(C)(C)C)C(=O)N2 (stereo partly drawn) [I-2556, Ac-PL3-Asp-Npg-B5-Asp-3COOHF-Aib-Ala-Phe-nLeu-PyrS2-3Thi-BztA-[AcPpz]GlnR-NH2] | – | 7 | 0.006 | –
CC(=O)N1CCC[C@]12CC=CCCCC1(CCCC=CCCCOC(=O)N3CC[C@@](C(=O)N[C@@H](Cc4ccsc4)C(=O)N[C@@H](Cc4csc5ccccc45)C(=O)N[C@@H](CC(C)C)C(N)=O)(C3)NC(=O)[C@H](CC(C)C)NC(=O)[C@H](Cc3ccccc3)NC(=O)[C@H](C)NC(=O)[C@H](C)NC(=O)[C@H](CC(=O)O)NC(=O)[C@H](CC(=O)O)NC1=O)NC(=O)[C@H](CO)NC(=O)[C@H](CC(=O)O)NC2=O (stereo partly drawn) [I-1414, Ac-PL3-Asp-Ser-B5-Asp-Asp-Ala-Ala-Phe-Leu-PyrS2-3Thi-BztA-Leu-NH2] | – | – | – | IC50 ([1]; NanoBRET Abs IC50, absolute IC50): > 20 µM; IC50 ([2]; beta-Catenin FP IC50, fluorescence polarization): 0.084 µM
CC(=O)N1CCC[C@]12CCCCCCC1(CCCCCCCCOC(=O)N3CC[C@@](C(=O)N[C@@H](Cc4ccsc4)C(=O)N[C@@H](Cc4csc5ccccc45)C(=O)N[C@@H](Cc4ccccc4)C(N)=O)(C3)NC(=O)[C@H]([C@@H](C)O)NC(=O)[C@H](Cc3ccccc3)NC(=O)[C@H](C)NC(=O)[C@H](CCCCNC(C)C)NC(=O)[C@H](CN(CC(=O)O)CC(F)(F)F)NC(=O)[C@H](CC(=O)O)NC1=O)NC(=O)[C@H](CC(C)(C)C)NC(=O)[C@H](CC(=O)O)NC2=O (stereo partly drawn) [I-1768, Ac-PL3-Asp-Npg-B5-Asp-TfeGA-iPrLys-Ala-Phe-Thr-PyrS2-3Thi-BztA-Phe-NH2] | – | > 20 | 0.069 | –
CC(=O)N1CCC[C@]12CC=CCCCCC1(CCCCC=CCCOC(=O)N3CC[C@@](C(=O)N[C@@H](Cc4ccccc4C(F)(F)F)C(=O)N[C@@H](Cc4csc5ccccc45)C(=O)N[C@@H](C)C(N)=O)(C3)NC(=O)[C@H](CC(C)C)NC(=O)[C@H](Cc3ccccc3)NC(=O)[C@H](C)NC(=O)[C@H](CCC(N)=O)NC(=O)[C@H](Cc3cccc(C(=O)O)c3)NC(=O)[C@H](CC(=O)O)NC1=O)NC(=O)[C@H](CC(C)(C)C)NC(=O)[C@H](CC(=O)O)NC2=O (stereo partly drawn) [I-2510, Ac-PL3-Asp-Npg-B6-Asp-3COOHF-Gln-Ala-Phe-Leu-PyrS1-2F3MeF-BztA-Ala-NH2] | – | 7.8 | 0.024 | –
